Experimental data published in ChEMBL document CHEMBL3988442, “University of Dundee, Small-Polar-MMV Screening Library” (2021).

The compounds below were run against Lysine--tRNA ligase (Plasmodium falciparum (isolate 3D7), UniProt Q8IDJ8) (assay: Pf-KRS-1 (Lysyl-RNA Synthetase-1, KRS-1, cytosolic KRS) from Plasmodium falciparum. Inhibitor assay, 384 well plate, luminescence read.).
Format: functional

Sequence of Lysine--tRNA ligase (Q8IDJ8 whole entry): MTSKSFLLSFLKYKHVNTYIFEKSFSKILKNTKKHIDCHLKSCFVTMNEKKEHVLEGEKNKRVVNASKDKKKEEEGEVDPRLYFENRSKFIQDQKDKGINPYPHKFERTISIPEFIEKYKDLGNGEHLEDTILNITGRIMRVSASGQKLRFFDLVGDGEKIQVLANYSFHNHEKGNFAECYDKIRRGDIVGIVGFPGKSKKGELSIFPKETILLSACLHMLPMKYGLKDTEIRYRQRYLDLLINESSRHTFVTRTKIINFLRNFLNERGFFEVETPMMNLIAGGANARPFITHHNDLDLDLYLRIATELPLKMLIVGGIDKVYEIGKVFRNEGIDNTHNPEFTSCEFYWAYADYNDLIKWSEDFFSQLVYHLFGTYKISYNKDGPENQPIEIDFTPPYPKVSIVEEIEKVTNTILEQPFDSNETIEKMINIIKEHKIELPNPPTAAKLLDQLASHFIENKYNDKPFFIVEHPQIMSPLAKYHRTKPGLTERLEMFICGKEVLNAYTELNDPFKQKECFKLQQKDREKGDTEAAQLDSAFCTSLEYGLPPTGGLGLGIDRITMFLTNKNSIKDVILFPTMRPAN

Compound | IC50
c1ncc2c(n1)CN(CC1CCCCO1)CC2 (configuration not stated) | 32.7 µM
O=C1CC(c2ccc(O)cc2)c2c(c(C(=O)O)cn2-c2ccccc2)N1 (configuration not stated) | > 50.1 µM
COc1ccccc1CNc1ccc2nncn2n1 | > 50.1 µM
O=C(Cc1ccc(Cl)s1)Nc1ccc2c(c1)C(=O)NC2=O | > 50.1 µM
O=C(NCc1cccs1)NCC(O)(c1cccs1)C1CC1 (configuration not stated) | > 50.1 µM
O=C(NCC1(O)CCCC1)c1ccc2nsnc2c1 | > 50.1 µM
Cc1ccc(-n2nnc(C(=O)NCC3CCCCC3)n2)cc1 | > 50.1 µM
COc1ccc(-n2nnc(C(=O)NCC3CCCCC3)n2)cc1 | > 50.1 µM
COc1ccc(C(=O)N2CCO[C@H]3[C@@H](OCC4CC4)CC[C@@H]32)cc1F | > 50.1 µM
O=c1ccc2c(n1Cc1cccnc1)CCC(NCc1cccnc1)C2 (configuration not stated) | > 50.1 µM
CCn1cc2c(n1)C(COCC1CC1)CN(C(=O)c1cc(C)on1)C2 (configuration not stated) | > 50.1 µM
CCOCC1CN(C(=O)c2cnoc2C)Cc2cn(CC3CC3)nc21 (configuration not stated) | > 50.1 µM
CS(=O)(=O)N1C[C@H](C(=O)Nc2cnccn2)C[C@H]2OCC[C@H]21 | > 50.1 µM
CCCS(=O)(=O)N1CCOC2(COCCN(C(C)=O)C2)C1 (configuration not stated) | > 50.1 µM
CCN(C)C(=O)c1cc(-c2ccn(C(C)C)n2)n2ccccc12 | > 50.1 µM
CN1C(=O)CC2(CCN(S(=O)(=O)c3cccs3)CC2)c2ccccc21 | > 50.1 µM
O=C(c1cnccn1)N1C[C@@H](c2ccccc2)[C@@]2(CCNC2=O)C1 | > 50.1 µM
CN1C(=O)CC2(CCN(S(=O)(=O)C3CC3)CC2)c2ccccc21 | > 50.1 µM
COCC1CN(C(=O)Cc2ccccn2)Cc2ncn(C)c21 (configuration not stated) | > 50.1 µM
COCCCN1CC2(CCCCN2C(=O)C2CCCCC2)CC1=O (configuration not stated) | > 50.1 µM
CN(Cc1cccs1)C1CCC[C@@H]2CN(C(=O)c3cccn3C)C[C@H]12 (some centres not stated) | > 50.1 µM
Cc1cccc(NC2CCc3c2[nH]c(=O)n(C2CCCCC2)c3=O)c1C (configuration not stated) | 2.45 µM
Cn1c(=O)c2c(n3ncnc13)NC(=O)CC2c1ccc(F)cc1 (configuration not stated) | > 50.1 µM
O=C1CC(c2ccc(C(=O)O)cc2)c2ncn(-c3cccc(F)c3)c2N1 (configuration not stated) | > 50.1 µM
O=c1[nH]c2c(c(=O)n1C1CCCCC1)CCC2NCCc1ccccc1 (configuration not stated) | 1.75 µM

Compound | IC50
O=c1[nH]c2c(c(=O)n1C1CCCCC1)CCC2Nc1ccccc1 (configuration not stated) | > 50.1 µM
O=C([C@H]1CCCO1)N1CCc2ncnc(NC3CC3)c2CC1 | > 50.1 µM
Cc1ccc(N2CC[C@H](OCC3CC3)[C@@H]2Cc2cnn(C)c2)nn1 | > 50.1 µM
CNc1ncc2c(n1)CN(C1CCCC1)C2=O | > 50.1 µM
CC1CCC(N2Cc3nc(N)ncc3C2=O)CC1 (configuration not stated) | > 50.1 µM
CC(C)CN1Cc2nc(N)ncc2C1=O | 35.6 µM
CSc1ncnc(NCc2cccs2)c1C#N | > 50.1 µM
Cc1sc(Oc2ccccc2Cl)nc1C(=O)O | > 50.1 µM
O=C(Cc1ccsc1)N1CCCC(c2n[nH]c3ncccc23)C1 (configuration not stated) | > 50.1 µM
Cn1c(CN2CCCc3cc(F)cc(F)c32)cc(=O)n(C)c1=O | > 50.1 µM
O=C(c1c[nH]nn1)N1CCCC1C1CCCCC1 (configuration not stated) | 42.3 µM
Cc1ncc2c(n1)CN(CC1CCCCO1)CC2 (configuration not stated) | 35.9 µM
Cc1ccc(C(=O)NCc2cc(F)ccc2N2CCCN(C)CC2)o1 | > 50.1 µM
CC1(C)CCN1C(=O)c1cc(F)cc2[nH]cnc12 | > 50.1 µM
CC(O)(CNc1ccc(Cl)c(C#N)n1)c1ccsc1 (configuration not stated) | 44 µM
Cn1cc(C(C)(O)CNc2ccc(Cl)c(C#N)n2)cn1 (configuration not stated) | > 50.1 µM
Cc1cc(NC(=O)CCCn2ccnc2C)nc(C(C)C)n1 | > 50.1 µM
O=C(NCC1CCC1)c1ccnc(-n2ccnc2)c1 | > 50.1 µM
CCC1CCC(CNC(=O)c2c[nH]c(=O)c(Cl)c2)CC1 (configuration not stated) | > 50.1 µM
CCOC(=O)C1CCCN(Cc2cc(C#N)n(C)c2C)C1 (configuration not stated) | > 50.1 µM
O=C(NCC1(O)CCSCC1)c1ccoc1 | > 50.1 µM
COc1cc(NC(=O)N(C)Cc2ccc(Br)o2)ncn1 | > 50.1 µM
CC(C)C(=O)NC1CCN(c2cccc(OC(F)(F)F)c2)C1=O (configuration not stated) | > 50.1 µM
Cc1ccc(O)c(CNCC(C)c2nc3ccccc3o2)n1 (configuration not stated) | > 50.1 µM
Cc1nnc(NCCC(=O)NCc2ccccc2)c(C#N)c1C | > 50.1 µM

Compound | IC50
Cc1nnc(NCCC(=O)N(C)Cc2ccccc2)c(C#N)c1C | > 50.1 µM
O=C(C[S+]([O-])Cc1c(Cl)cccc1Cl)N1CCc2sccc2C1 (configuration not stated) | > 50.1 µM
O=C(c1nc(=O)[nH][nH]1)N1CCC2(CCCCC2)C1 | > 50.1 µM
FC(F)(F)COCCN1CCc2cncnc2C1 | > 50.1 µM
CC(Nc1ccn(Cc2ccccn2)n1)C(=O)NC(C)(C)C (configuration not stated) | > 50.1 µM
COCc1cc(N(CC(F)F)C2CC2)n2ncnc2n1 | > 50.1 µM
O=C1COc2cc(C(=O)NCc3ccc(Cl)s3)ccc2N1 | 17.5 µM
c1cnn(C2CN(c3ncnc4[nH]ccc34)C2)c1 | > 50.1 µM
Cc1cc(C)n(C2CN(c3ncnc4[nH]ccc34)C2)n1 | > 50.1 µM
O=C(NCc1ccc(Cl)s1)c1ccc(N2CCOC2=O)cc1 | > 50.1 µM
CCN(Cc1cccc(F)c1)c1ccc2nnnn2n1 | > 50.1 µM
C=C(C)Cn1ccc2cc(OC)c(F)cc2c1=O | > 50.1 µM
Cn1cc(NC(=O)c2ccccn2)cc(Br)c1=O | > 50.1 µM
O=C(COCc1ccccc1Cl)N1CCN(c2cnccn2)CC1 | > 50.1 µM
CCCC(=O)N1CCCCC1C(=O)Nc1ccc(-c2nnc[nH]2)cc1 (configuration not stated) | > 50.1 µM
CC(C)CN1C(=O)C2(CCCC2)NC1c1cn(C)c(=O)n(C)c1=O (configuration not stated) | > 50.1 µM
Cc1cc(C(N)=O)ccc1NC(=O)c1nc(N2CCCC2)ncc1Cl | > 50.1 µM
NS(=O)(=O)c1ccc(NC(=O)CSc2ccc3c(c2)CCC3)cc1 | > 50.1 µM
CSc1cc2c(cc1NC(=O)NCC(C)(C)C(N)=O)OCCO2 | > 50.1 µM
CO[C@H]1CC[C@H]2[C@H]1OCCN2C(=O)CC1=CCCCC1 | > 50.1 µM
CC(=O)c1cnc(N(C)Cc2cc(C)cc(C)n2)nc1C | > 50.1 µM
Cc1nc(C)c(C)c(N(C)CCCc2nccn2C)n1 | > 50.1 µM
Cc1nc(N(C)C)ncc1C(=O)NCCc1csc(-c2cnccn2)n1 | > 50.1 µM
CN1C[C@@H]2CC[C@H](CC1=O)N2C(=O)c1ccc(-c2ccccc2)[nH]c1=O | > 50.1 µM
COc1ccccc1N1CCC(N2CCOCC(CO)C2)CC1 (configuration not stated) | > 50.1 µM

Compound | IC50
Cc1ccc([C@@H]2CN(C(=O)c3cc(C)no3)C[C@H]2NC(=O)C2CC2)cc1 | > 50.1 µM
c1ccc(SCCN2CCCC(Cn3ccnc3)C2)cc1 (configuration not stated) | > 50.1 µM
CCCc1ccc(CN2CCN(C(=O)CC(C)C)[C@@H]3CS(=O)(=O)C[C@@H]32)o1 | > 50.1 µM
Cc1nc(CN2CCCC(CCc3ccccc3C(F)(F)F)C2)co1 (configuration not stated) | > 50.1 µM
Cc1nc(N(C)C)ncc1C(=O)NCCc1csc(-c2ccncc2)n1 | > 50.1 µM
O=C(NCC1(O)CCCCC1)c1coc(COc2cccc(F)c2)n1 | > 50.1 µM
Cc1nnc(NCCn2nc(C)c(Cl)c2C)o1 | > 50.1 µM
O=C1COc2ccccc2N1CCCn1cnnn1 | > 50.1 µM
COc1ccc(/C=C/CN2C[C@H]3CC[C@@H]2CN(S(=O)(=O)N(C)C)C3)cc1 | > 50.1 µM
Cc1cc2ccccc2n1CCC(=O)N1CCCCC1CCO (configuration not stated) | > 50.1 µM
O=C(CC1COCCN1)N1CCC(N2CCc3ccccc3C2)CC1 (configuration not stated) | > 50.1 µM
CCCn1ccnc1CN1CCC(Oc2ccc(Cl)cc2)(C(=O)O)CC1 | > 50.1 µM
CN(C)CCNC(=O)c1ccc(S(=O)(=O)N[C@@H]2CCNC2)cc1 | > 50.1 µM
C/C=C(\C)CN1C[C@H](NC(=O)CCOC)[C@@H](c2ccc(C)o2)C1 | > 50.1 µM
Cc1nc(CN2CCC3(CCCO3)CC2)c2ccccn12 | > 50.1 µM
O=C(O)c1cc(-c2cc[nH]n2)cc(S(=O)(=O)N2CCCCCC2)c1 | > 50.1 µM
O=C(O)c1cc(-c2ccncc2F)cc(S(=O)(=O)N2CCCCCC2)c1 | > 50.1 µM
CCN1CCC(N2CCN(c3cc(-c4nc(C)no4)ccn3)CC2)CC1 | > 50.1 µM
Cc1nc(N(C)CCCc2nccn2C)c2nc(C)oc2n1 | > 50.1 µM
COc1c(F)ccc(C(=O)N2CC[C@H](CO)[C@@H](O)C2)c1F | > 50.1 µM
Cc1cc(C2CCC2)nc(N2CCC3(CC2)OCCCC3O)n1 (configuration not stated) | > 50.1 µM
CN1CC(c2ccccc2)CC12CCN(C(=O)c1cccnc1)CC2 (configuration not stated) | > 50.1 µM
NC(=O)c1ccc(CN2C(=O)C3(CCNCC3)Nc3ccccc32)cc1 | > 50.1 µM
Cc1cc(C)c2c(NCC3(O)CCCCC3)ncnc2n1 | > 50.1 µM
O=c1c(CN2CCOCC2)coc2ccc(Cl)cc12 | > 50.1 µM

Compound | IC50
O=c1c(CN2CCCCC2)coc2ccc(Cl)cc12 | > 50.1 µM
CCCc1ccc(CN2CCN(c3ncccn3)[C@@H]3CS(=O)(=O)C[C@@H]32)o1 | > 50.1 µM
Cc1ccc(C2(O)CCN(Cc3nc(C)n4ccccc34)CC2)nc1 | > 50.1 µM
CCc1cc2cc(OC)c(OC)cc2nc1SCCN1CCCCC1 | > 50.1 µM
CC(C)NC(=O)N1CCc2c(CNc3ncccn3)cncc2C1 | > 50.1 µM
CCc1c(C)[nH]c(C(C)(N)CC)nc1=O (configuration not stated) | > 50.1 µM
COc1cc(CNC(C)Cn2ccnc2)cc2c1OCO2 (configuration not stated) | > 50.1 µM
COc1cc(CNCCn2ccnc2)cc2c1OCO2 | > 50.1 µM
COCCN1CCOCC12CCN(c1ccc(C#N)cc1)CC2 | > 50.1 µM
Cc1cnc(N2CCN(C)c3ncccc3C2)nc1 | > 50.1 µM
O=C(O)c1c(-c2ccoc2)ncc2c1CCN(C1CCOC1)C2 (configuration not stated) | > 50.1 µM
Cc1noc(C)c1CN1CCOC2(CCCN(c3nncs3)C2)C1 (configuration not stated) | > 50.1 µM
CC(=O)N1CC(=O)N(c2ccsc2)CC12CCN(Cc1ccccn1)C2 (configuration not stated) | > 50.1 µM
CCOCC1CN(Cc2ccc(OC)cc2)Cc2nn(CC3CC3)cc21 (configuration not stated) | > 50.1 µM
CNC(=O)c1ccc2c(c1)C1(CCN(CC(C)C)CC1)C(=O)N2 | > 50.1 µM
O=C([C@@H]1C[C@H]2[C@H](CCN2Cc2nccs2)O1)N1CCOCC1 | > 50.1 µM
COCCCN1CCCC12CCN(Cc1cccnc1OC)CC2 | > 50.1 µM
Cc1ccc(CN2C[C@@H]3CN(CC4CCOCC4)CCO[C@@H]3C2)s1 | > 50.1 µM
Cc1cc(C(=O)N2CCCC3(COCCN(CCN(C)C)C3)C2)no1 (configuration not stated) | > 50.1 µM
CN1[C@H](Cn2cncn2)C[C@@H]2CN(Cc3cccc(C#N)c3)CC[C@@H]21 | > 50.1 µM
O=C(Nc1cccnc1)[C@H]1C[C@@H]2CCN(c3nncs3)C[C@H]2O1 | > 50.1 µM
Cc1noc(C)c1CN1CC[C@H]2[C@H]1CCN2CC1CCOCC1 | > 50.1 µM
